This experiment concerns the target T1, STING (Homo sapiens, UniProt Q86WV6, H232R).
T1 construct: gene STING1; carboxy-terminal domain (STING^R232/CTD; CTD printed as residues 149–379)
The experiment can be described thus: isothermal titration calorimetry (ITC). Format: binding.

T1 sequence (Q86WV6 149-379 H232R): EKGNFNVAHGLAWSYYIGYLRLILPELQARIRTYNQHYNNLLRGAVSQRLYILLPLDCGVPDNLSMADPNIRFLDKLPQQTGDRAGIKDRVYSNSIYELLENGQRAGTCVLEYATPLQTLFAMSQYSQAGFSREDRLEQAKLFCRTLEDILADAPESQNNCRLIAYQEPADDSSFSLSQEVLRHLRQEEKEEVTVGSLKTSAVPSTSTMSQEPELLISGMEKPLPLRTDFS

`Nc1nc2c(ncn2[C@@H]2O[C@@H]3CO[P@](=O)(O)O[C@H]4[C@@H](O)[C@H](n5cnc6c(=O)[nH]c(N)nc65)O[C@@H]4CO[P@](=O)(O)O[C@H]3[C@H]2O)c(=O)[nH]1` [c-di-GMP] registered a Kd of 4.09 µM.

(Values after publication PMC6753226, “Highly Efficient Preparation of Cyclic Dinucleotides via Engineering of Dinucleotide Cyclases in Escherichia coli” (Frontiers in Microbiology, 2019).)
